The values below come from PMC6438990 (Cellular and Molecular Gastroenterology and Hepatology, 2019).

The target of the assay is T1, SLC26A3 (DRA, down-regulated in adenoma) (Homo sapiens, UniProt P40879).
T1 sequence (P40879 1-764): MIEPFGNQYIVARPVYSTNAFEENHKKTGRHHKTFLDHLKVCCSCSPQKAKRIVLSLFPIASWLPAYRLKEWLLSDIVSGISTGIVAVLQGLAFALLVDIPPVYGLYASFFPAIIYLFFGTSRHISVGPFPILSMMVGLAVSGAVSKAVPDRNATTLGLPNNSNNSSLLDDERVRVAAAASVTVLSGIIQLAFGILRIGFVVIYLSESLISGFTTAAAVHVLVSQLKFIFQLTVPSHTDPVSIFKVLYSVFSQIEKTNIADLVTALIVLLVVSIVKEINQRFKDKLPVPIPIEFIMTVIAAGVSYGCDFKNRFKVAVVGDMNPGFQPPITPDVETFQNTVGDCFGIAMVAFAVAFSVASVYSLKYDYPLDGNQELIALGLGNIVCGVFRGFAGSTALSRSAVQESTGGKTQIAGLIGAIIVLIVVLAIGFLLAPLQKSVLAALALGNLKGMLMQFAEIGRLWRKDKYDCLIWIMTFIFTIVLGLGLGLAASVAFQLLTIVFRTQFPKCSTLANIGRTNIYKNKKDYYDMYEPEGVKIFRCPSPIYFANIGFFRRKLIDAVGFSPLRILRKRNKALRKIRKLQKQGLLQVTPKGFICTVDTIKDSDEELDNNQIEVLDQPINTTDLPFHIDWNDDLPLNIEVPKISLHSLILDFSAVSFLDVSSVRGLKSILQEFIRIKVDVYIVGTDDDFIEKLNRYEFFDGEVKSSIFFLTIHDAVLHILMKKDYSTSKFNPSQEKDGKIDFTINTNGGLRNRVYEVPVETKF
The assay is classed as cell-based.

The term IC50 denotes the point on the concentration scale where inhibition reaches its midpoint. A high value points to weaker potency.

Structures are written as SMILES.

With `Cc1c(CC(=O)O)c(=O)oc2c(C)c(OCc3cccc(Br)c3)ccc12` [DRAinh-A250], the IC50 came to 120 ± 40 nM.
